Entries after “also recorded” stand apart in the source; their conditions may differ. Peptide text beside a SMILES is read from it.
Experiments:
Prdx6 = settings: role: inhibitor; background statement; cited from earlier work
[1] = tested on: LPS-induced sepsis in pigs; test: Adverse effects in the LPS-induced ALI model in pigs / tolerability statements; design: species or system Yorkshire pigs (Sus scrofa domesticus); settings: pig, in vivo; listed as PIP-2
Protocol: Prior to start of the experiment, the battery of systemic, cardiovascular, and pulmonary tests was carried out. These are called baseline measurements. Pigs were infused IV (zero time) with: Group 1, liposomes alone, no LPS (control, n=2); Group 2, LPS+liposomes (ALI untreated, n=6); and Group 3, LPS+PIP-2 in liposomes (ALI treated, n=12). Technical personnel responsible for animal care were “blinded” to the treatment conditions. LPS was given as an IV infusion of 50 ug/kg body weight over the first hour of the experiment. […] Either liposomes alone (Group 2) or PIP-2 in liposomes (Group 3) was infused as a “slow” bolus at the end of the LPS infusion. Liposomes were given at 2.22 mg/kg body weight. PIP-2 was given at 20 mg/kg body weight. Based on the measured encapsulation efficiency of ~15-20%, the IV administered PIP-2 was ~3-4 mg/kg body weight in liposomes and the remainder was in aqueous solution; presumably, the encapsulated PIP-2 was internalized by cells while the unencapsulated PIP-2 remained extracellular.

[2] = discussion statement, no data shown; cited from earlier work
pancreatic PLA2 = settings: role: inhibitor; background statement; cited from earlier work
ALI in mice = settings: variety of mouse models of ALI; cited from earlier work

| Molecule | inhibition of aiPLA2 / PLA2 activity of Prdx6 (in words) (Prdx6) | adverse side-effects / toxicity (in words) [1] | tissue half-life (in words) [2] | inhibition of other PLA2 enzymes (in words) (pancreatic PLA2) | effect on lung injury in mouse ALI models (in words) (ALI in mice) |
| --- | --- | --- | --- | --- | --- |
| SP-A: surfactant protein A (SP-A), 246 amino acids of human SP-A | bind to Prdx6 preventing aiPLA2 activity; also recorded: binds to Prdx6 and inhibits its aiPLA2 activity |  |  |  |  |
| CC[C@H](C)[C@H](NC(=O)[C@H](CCC(N)=O)NC(=O)[C@H](Cc1c[nH]cn1)NC(=O)[C@H](CCCNC(=N)N)NC(=O)[C@H](Cc1ccccc1)NC(=O)[C@H](CC(=O)O)NC(=O)[C@H](Cc1c[nH]cn1)NC(=O)[C@@H](N)CC(C)C)C(=O)N[C@@H](CC(C)C)C(=O)O [SEQ ID NO: 2] (H-LHDFRHQIL-OH) |  | no evidence of adverse side-effects; also recorded: non-toxic | relatively favorable tissue half-life |  |  |
| CCCCCCCCCCCCCCCCOCC(COCC(F)(F)F)OP(=O)(O)OC (stereo not drawn) [MJ33] | bind to Prdx6 preventing aiPLA2 activity |  |  | inhibits various PLA2 enzymes such as pancreatic PLA2 | can significantly ameliorate lung injury; also recorded: markedly protective effect against lung injury |

Reference: patent US20260306579A1, “COMPOSITIONS AND METHODS FOR TREATMENT OF SEPTIC SHOCK” (PEROXITECH THERAPEUTICS, INC., priority 2023, published 2026)
